Here are results for 17 compounds from patent US9611232B2, “Oxazolidinone and imidazolidinone compounds” (Hoffmann-La Roche Inc., priority 2012, dated 2017).

The structures appear in SMILES notation. Several values for one entry are separate records, joined by “and”; a condition that tells them apart may be missing. Equal values may be shown once.

This assay concerns the target KCa3.1 (Homo sapiens (Human), UniProt O15554). In words: Thallium influx assay (FLIPR, FluxOR). Format: cell-based. As to conditions: CHOK1 cells over-expressing KCa3.1; thallium (3.3 mM)/ionomycin (1 μM) activation. As to the method:
The thallium influx assay was performed with CHOK1 cells over-expressing KCa3.1 obtained from Evotec and maintained in MEM Alpha medium supplemented with 10% fetal bovine serum, 100 U/ml penicillin/[…] streptomycin and 250 μg/ml G418.
CHOK1 wild type cells were passaged using F12/Ham's medium supplemented with 10% fetal bovine serum, 2 mM glutamine, 100 U/ml penicillin/[…] streptomycin. All cells were cultured in T175 flasks.
Before the day of the assay, cells were harvested from culture flasks using standard trypsin digestion. Cells were counted and densities adjusted and dispensed into 384-well poly-D-lysine coated plates at 7500 […], assay plates were incubated overnight in CO2 incubator at 37° C.
The following day, growth media was removed followed by the addition of 25 ul/well of FluxOR™ (Invitrogen) loading dye in a gluconate based assay buffer (135 mM NaGluconate,
2.5 mM Kgluconate, 2 mM CaNO3, 1 mM MgNO3, 10 mM HEPES (acid), 5 mM glucose pH adjusted to 7.4). Assay plates were incubated for 1 hour at 37° C. The loading dye was then replaced with gluconate assay buffer containing probenecid.
Compounds diluted in gluconate buffer were transferred into the assay plates (25 μl/well) followed by incubation for 20 minutes at room temperature. The assay plates were then transferred to a Fluorometric Imaging Plate Reader (FLIPR), a baseline was read for twenty second capture, followed by the addition of 25 μl/well of channel activation solution in gluconate buffer—for KCa3.1 cells thallium (3.3 mM)/ionomycin(1 μM) was used and for the wild type, ionomycin only, then fluorescence was monitored for another 90 seconds.
Regarding `CCOC(=O)CN1C(=O)O[C@@H](c2ccc(F)cc2)[C@H]1c1cccc(C(F)(F)F)c1` (racemic) [Example 31, [(4RS,5SR)-5-(4-Fluoro-phenyl)-2-oxo-4-(3-trifluoromethyl-phenyl)-oxazolidin-3-yl]-acetic acid ethyl ester], the IC50 came to 7540 nM.
For the compound `CCOC(=O)CN1C(=O)O[C@@H](c2cccc(C(F)(F)F)c2)[C@H]1c1cccc(C(F)(F)F)c1` (racemic) [Example 33], 1560 nM corresponded to half-maximal inhibition (IC50).
In the case of `CCOC(=O)CN1C(=O)O[C@@H](c2ccc(F)cc2)[C@H]1c1ccc(F)cc1` (racemic) [Example 34], it took 6700 nM to reach half-maximal inhibition (IC50).
In turn, `CNC(=O)CN1C(=O)O[C@@H](c2cccc(C(F)(F)F)c2)[C@H]1c1ccc(F)cc1` (racemic) [Example 36] showed an IC50 of 6600 nM.
On to `CCNC(=O)CN1C(=O)O[C@@H](c2cccc(C(F)(F)F)c2)[C@H]1c1ccc(F)cc1` (racemic) [Example 37], for which the half-maximal inhibitory concentration (IC50) stood at 4900 nM.
As for `N#CCN1C(=O)O[C@@H](c2cccc(C(F)(F)F)c2)[C@H]1c1ccc(F)cc1` (racemic) [Example 38], the figure is 1600 nM; as for `O=C1O[C@@H](c2cccc(C(F)(F)F)c2)[C@@H](c2ccc(F)cc2)N1Cc1ncco1` (racemic) [Example 39, (4RS,5SR)-4-(4-fluorophenyl)-3-(oxazol-2-ylmethyl)-5-(3-(trifluoromethyl)phenyl)oxazolidin-2-one], 11000 nM; as for `Cc1coc(CN2C(=O)O[C@@H](c3cccc(C(F)(F)F)c3)[C@H]2c2ccc(F)cc2)n1` (racemic) [Example 40], 6900 nM.
As for `NC(=O)CN1C(=O)OC(c2ccccc2F)(c2ccccc2F)[C@@H]1c1ccccc1` [Example 2, 2-[(S)-5,5-Bis-(2-fluoro-phenyl)-2-oxo-4-phenyl-oxazolidin-3-yl]-acetamide], the figure is 830 nM; as for `NC(=O)CN1C(=O)OC(c2cccc(F)c2)(c2cccc(F)c2)[C@@H]1c1ccccc1` [Example 3, 2-[(S)-5,5-Bis-(3-fluoro-phenyl)-2-oxo-4-phenyl-oxazolidin-3-yl]-acetamide], 630 nM.
`CCOC(=O)CN1C(=O)OC(c2ccc(F)cc2)(c2ccc(F)cc2)C1c1ccc(F)cc1F` (centres unmarked) [Example 4, [4-(2,4-Difluoro-phenyl)-5,5-bis-(4-fluoro-phenyl)-2-oxo-oxazolidin-3-yl]-acetic acid ethyl ester]: the IC50 came out at 3140 nM.
The figure for `NC(=O)CN1C(=O)OC(c2ccc(F)cc2)(c2ccc(F)cc2)[C@@H]1c1ccc(F)cc1F` [Example 5, 2-[(S)-4-(2,4-Difluoro-phenyl)-5,5-bis-(4-fluoro-phenyl)-2-oxo-oxazolidin-3-yl]-acetamide] is 660 nM and 1140 nM; for `CCOC(=O)CN1C(=O)OC(c2ccc(F)cc2)(c2ccc(F)cc2)[C@@H]1c1ccc(F)cc1` [Example 6, [(S)-4,5,5-Tris-(4-fluoro-phenyl)-2-oxo-oxazolidin-3-yl]acetic acid ethyl ester] it is 1340 nM; for `NC(=O)CN1C(=O)OC(c2ccc(F)cc2)(c2ccc(F)cc2)C1c1c(F)cccc1F` (centres unmarked) [Example 8, 2-[4-(2,6-Difluoro-phenyl)-5,5-bis-(4-fluoro-phenyl)-2-oxo-oxazolidin-3-yl]-acetamide] it is 7150 nM.
The compound `NC(=O)CN1C(=O)OC(c2ccc(F)cc2)(c2ccc(F)cc2)C1c1cccc(F)c1` (centres unmarked) [Example 9, 2-(4-(3-fluorophenyl)-5,5-bis(4-fluorophenyl)-2-oxooxazolidin-3-yl)acetamide] returned an IC50 of 6050 nM.
The compound `CCOC(=O)CN1C(=O)OC(c2ccc(F)cc2)(c2ccc(F)cc2)[C@@H]1c1ccccc1F` [Example 10, [5,5-Bis-(4-fluoro-phenyl)-4-(2-fluoro-phenyl)-2-oxo-oxazolidin-3-yl]-acetic acid ethyl ester] gave an IC50 of 1900 nM.
As for `CCOC(=O)CN1C(=O)OC(c2ccccc2F)(c2ccccc2F)[C@@H]1c1ccccc1F` [Example 12, [(S)-4,5,5-Tris-(2-fluoro-phenyl)-2-oxo-oxazolidin-3-yl]acetic acid ethyl ester], the figure is 1100 nM.
